The values that follow come from patent US12522595B2, “Bicyclic ether O-glycoprotein-2-acetamido-2-deoxy-3-D-glucopyranosidase inhibitors” (BIOGEN MA INC., priority 2019, dated 2026).

As a reminder, the IC50 is the concentration at which inhibition is half-maximal.

Each structure is given as a SMILES string.

This assay addresses T1, Recombinant full length human OGA enzyme (Homo sapiens, UniProt O60502).
T1 construct: Recombinant full length human OGA enzyme was purchased from Origene; purchased Origene
T1 sequence (O60502 1-916): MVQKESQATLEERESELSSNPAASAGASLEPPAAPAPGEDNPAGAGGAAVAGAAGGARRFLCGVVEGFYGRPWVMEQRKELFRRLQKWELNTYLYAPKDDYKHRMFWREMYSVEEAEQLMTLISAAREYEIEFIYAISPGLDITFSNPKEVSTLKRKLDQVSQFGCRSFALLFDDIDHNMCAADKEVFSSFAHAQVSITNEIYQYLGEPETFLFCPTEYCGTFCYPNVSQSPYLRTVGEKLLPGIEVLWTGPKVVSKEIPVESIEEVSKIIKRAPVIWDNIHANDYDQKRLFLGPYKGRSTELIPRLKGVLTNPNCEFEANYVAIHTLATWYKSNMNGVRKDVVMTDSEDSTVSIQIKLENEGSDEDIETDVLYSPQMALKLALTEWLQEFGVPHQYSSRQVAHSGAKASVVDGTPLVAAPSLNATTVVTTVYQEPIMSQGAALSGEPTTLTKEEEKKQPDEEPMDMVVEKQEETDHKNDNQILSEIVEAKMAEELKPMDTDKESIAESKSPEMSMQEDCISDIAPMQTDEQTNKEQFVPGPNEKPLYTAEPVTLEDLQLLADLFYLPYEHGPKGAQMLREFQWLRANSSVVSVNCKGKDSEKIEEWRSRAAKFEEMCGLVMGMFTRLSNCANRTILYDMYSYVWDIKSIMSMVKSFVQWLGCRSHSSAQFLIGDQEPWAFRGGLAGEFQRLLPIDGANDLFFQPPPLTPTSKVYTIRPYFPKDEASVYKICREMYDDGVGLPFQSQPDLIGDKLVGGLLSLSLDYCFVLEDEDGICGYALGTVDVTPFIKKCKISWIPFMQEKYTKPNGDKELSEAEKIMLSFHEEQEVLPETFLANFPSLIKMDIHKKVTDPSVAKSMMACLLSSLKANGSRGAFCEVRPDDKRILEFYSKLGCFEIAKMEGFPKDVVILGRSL
In words: OGA enzyme inhibition biochemical assay. As to conditions: 1 nM OGA, 100 μM 4-MUGlcNAc (Km), pH 6.4, 90 minutes at room temperature, 10-point dose-response from 20 μM. The procedure, abridged:
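1 nM OGA with 100 μM 4-MUGlcNAc (Km) in McIlvaine buffer pH 6.4, 0.01% BSA, 90 min at room temperature; quenched with 3M glycine pH 10, fluorescence Ex 355/Em 460 nm. 10-point, 4-fold dilutions from 20 μM; 4-parameter variable-slope fit.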
As for `CC(=O)Nc1ncc(CN2C[C@H](Oc3nccc4cc(F)ccc34)C[C@@H]2C)s1` [Example 27, N-(5-(((2S,4R)-4-((6-fluoroisoquinolin-1-yl)oxy)-2-methylpyrrolidin-1-yl)methyl)thiazol-2-yl)acetamide], the IC50 amounted to 4 nM.
Regarding `CC(=O)Nc1nc(F)c(CN2C[C@H](Oc3ccn4nncc4c3)C[C@@H]2C)s1` [Example 149, N-(5-(((2S,4R)-4-([1,2,3]triazolo[1,5-a]pyridin-5-yloxy)-2-methylpyrrolidin-1-yl)methyl)-4-fluorothiazol-2-yl)acetamide], the IC50 is under 1 nM.
As for `CC(=O)Nc1nc(F)c(CN2C[C@H](Oc3ncnc4occc34)C[C@@H]2C)s1` [Example 74, N-(4-fluoro-5-(((2S,4R)-4-(furo[2,3-d]pyrimidin-4-yloxy)-2-methylpyrrolidin-1-yl)methyl)thiazol-2-yl)acetamide], the figure is under 1 nM; as for `CC(=O)Nc1ncc(CN2C[C@H](Oc3nccc4ccccc34)C[C@@H]2C)s1` [Example 26, N-(5-(((2S,4R)-4-(isoquinolin-1-yloxy)-2-methylpyrrolidin-1-yl)methyl)thiazol-2-yl)acetamide], 4.5 nM.
For the compound `CC(=O)Nc1nc(F)c(CN2C[C@H](Oc3cnc4nncn4c3)C[C@@H]2C)s1` [Example 165, N-(5-(((2S,4R)-4-([1,2,4]triazolo[4,3-a]pyrimidin-6-yloxy)-2-methylpyrrolidin-1-yl)methyl)-4-fluorothiazol-2-yl)acetamide], the IC50 was under 1 nM.
As to `CC(=O)Nc1ncc(CN2C[C@H](Oc3nccc4nccn34)C[C@@H]2C)s1` [Example 97, N-(5-(((2S,4R)-4-(imidazo[1,2-c]pyrimidin-5-yloxy)-2-methylpyrrolidin-1-yl)methyl)thiazol-2-yl)acetamide], the IC50 was under 1 nM.
As to `CC(=O)Nc1ncc(CN2C[C@H](Oc3cnc4nc(C)oc4c3)C[C@@H]2C)s1` [Example 168, N-(5-(((2S,4R)-2-Methyl-4-((2-methyloxazolo[4,5-b]pyridin-6-yl)oxy)pyrrolidin-1-yl)methyl)thiazol-2-yl)acetamide], the IC50 is under 1 nM.
As to `CC(=O)Nc1ncc(CN2C[C@H](Oc3ccc4nnc(C(F)(F)F)n4n3)C[C@@H]2C)s1` [Example 18, N-(5-(((2S,4R)-2-methyl-4-((3-(trifluoromethyl)-[1,2,4]triazolo[4,3-b]pyridazin-6-yl)oxy)pyrrolidin-1-yl)methyl)thiazol-2-yl)acetamide], the IC50 was under 1 nM.
Consider `CC(=O)Nc1nc(F)c(CN2C[C@H](Oc3ccc4cn(C)nc4c3)C[C@@H]2C)s1` [Example 51, N-(4-fluoro-5-(((2S,4R)-2-methyl-4-((2-methyl-2H-indazol-6-yl)oxy)pyrrolidin-1-yl)methyl)thiazol-2-yl)acetamide], for which the IC50 was under 1 nM.
Consider `CC(=O)Nc1nc(F)c(CN2C[C@H](Oc3ccn4ncnc4c3)C[C@@H]2C)s1` [Example 107, N-(5-(((2S,4R)-4-([1,2,4]triazolo[1,5-a]pyridin-7-yloxy)-2-methylpyrrolidin-1-yl)methyl)-4-fluorothiazol-2-yl)acetamide], for which the IC50 was under 1 nM.
For `CC(=O)Nc1ncc(CN2C[C@H](Oc3cc(C(N)=O)nc4ccccc34)C[C@@H]2C)s1` [Example 21, 4-(((3R,5S)-1-((2-acetamidothiazol-5-yl)methyl)-5-methylpyrrolidin-3-yl)oxy)quinoline-2-carboxamide], the half-inhibitory concentration (IC50) is 1.9 nM.
For the compound `CC(=O)Nc1nc(F)c(CN2C[C@H](Oc3ccc4ccnn4c3)C[C@@H]2C)s1` [Example 54, N-(4-fluoro-5-(((2S,4R)-2-methyl-4-(pyrazolo[1,5-a]pyridin-6-yloxy)pyrrolidin-1-yl)methyl)thiazol-2-yl)acetamide], the IC50 is under 1 nM.
In the case of `CC(=O)Nc1nc(F)c(CN2C[C@H](Oc3nccc4nn(C)cc34)C[C@@H]2C)s1` [Example 136, N-(4-fluoro-5-(((2S,4R)-2-methyl-4-((2-methyl-2H-pyrazolo[4,3-c]pyridin-4-yl)oxy)pyrrolidin-1-yl)methyl)thiazol-2-yl)acetamide], the IC50 is under 1 nM.
On to `CC(=O)Nc1nc(F)c(CN2C[C@H](Oc3nn4ccnc4s3)C[C@@H]2C)s1` [Example 111, N-(4-fluoro-5-(((2S,4R)-4-(imidazo[2,1-b][1,3,4]thiadiazol-2-yloxy)-2-methylpyrrolidin-1-yl)methyl)thiazol-2-yl)acetamide], for which the IC50 is under 1 nM.
Turning to `CC(=O)Nc1ncc(CN2C[C@H](Oc3ccc4occc4n3)C[C@@H]2C)s1` [Example 65, N-(5-(((2S,4R)-4-(furo[3,2-b]pyridin-5-yloxy)-2-methylpyrrolidin-1-yl)methyl)thiazol-2-yl)acetamide], the IC50 was under 1 nM.
`CC(=O)Nc1ncc(CN2C[C@H](Oc3ncnc4cc(F)c(F)cc34)C[C@@H]2C)s1` [Example 35, N-(5-(((2S,4R)-4-((6,7-difluoroquinazolin-4-yl)oxy)-2-methylpyrrolidin-1-yl)methyl)thiazol-2-yl)acetamide]: the IC50 came out at 110 nM.
`CC(=O)Nc1nc(F)c(CN2C[C@H](Oc3ccnc4cc(F)cnc34)C[C@@H]2C)s1` [Example 129, N-(4-fluoro-5-(((2S,4R)-4-((7-fluoro-1,5-naphthyridin-4-yl)oxy)-2-methylpyrrolidin-1-yl)methyl)thiazol-2-yl)acetamide]: the IC50 is under 1 nM.
For the compound `CC(=O)Nc1nc(F)c(CN2C[C@H](Oc3nc4c(F)cccc4o3)C[C@@H]2C)s1` [Example 127, N-(4-fluoro-5-(((2S,4R)-4-((4-fluorobenzo[d]oxazol-2-yl)oxy)-2-methylpyrrolidin-1-yl)methyl)thiazol-2-yl)acetamide], the IC50 was under 1 nM.
In the case of `CC(=O)Nc1ncc(CN2C[C@H](Oc3cn4nc(C)cc4cn3)C[C@@H]2C)s1` [Example 53, N-(5-(((2S,4R)-2-methyl-4-((2-methylpyrazolo[1,5-a]pyrazin-6-yl)oxy)pyrrolidin-1-yl)methyl)thiazol-2-yl)acetamide], the IC50 was under 1 nM.
In the case of `CC(=O)Nc1nc(F)c(CN2C[C@H](Oc3ccc4c(nnn4C)n3)C[C@@H]2C)s1` [Example 152, N-(4-fluoro-5-(((2S,4R)-2-methyl-4-((1-methyl-1H-[1,2,3]triazolo[4,5-b]pyridin-5-yl)oxy)pyrrolidin-1-yl)methyl)thiazol-2-yl)acetamide], the IC50 is under 1 nM.
For the compound `CC(=O)Nc1nc(F)c(CN2C[C@H](Oc3nccc4c3cnn4C)C[C@@H]2C)s1` [Example 138, N-(4-fluoro-5-(((2S,4R)-2-methyl-4-((1-methyl-1H-pyrazolo[4,3-c]pyridin-4-yl)oxy)pyrrolidin-1-yl)methyl)thiazol-2-yl)acetamide], the IC50 was under 1 nM.
As for `CC(=O)Nc1nc(F)c(CN2C[C@H](Oc3ccnc4c3cnn4C)C[C@@H]2C)s1` [Example 139, N-(4-fluoro-5-(((2S,4R)-2-methyl-4-((1-methyl-1H-pyrazolo[3,4-b]pyridin-4-yl)oxy)pyrrolidin-1-yl)methyl)thiazol-2-yl)acetamide], the figure is under 1 nM; as for `CC(=O)Nc1ncc(CN2C[C@H](Oc3nc4ccccc4cc3C#N)C[C@@H]2C)s1` [Example 37, N-(5-(((2S,4R)-4-((3-cyanoquinolin-2-yl)oxy)-2-methylpyrrolidin-1-yl)methyl)thiazol-2-yl)acetamide], 16 nM; as for `CC(=O)Nc1nc(F)c(CN2C[C@H](Oc3nccn4cc(C)nc34)C[C@@H]2C)s1` [Example 103, N-(4-fluoro-5-(((2S,4R)-2-methyl-4-((2-methylimidazo[1,2-a]pyrazin-8-yl)oxy)pyrrolidin-1-yl)methyl)thiazol-2-yl)acetamide], under 1 nM.
Regarding `CC(=O)Nc1nc(F)c(CN2C[C@H](Oc3cccn4ccnc34)C[C@@H]2C)s1` [Example 157, N-(4-fluoro-5-(((2S,4R)-4-(imidazo[1,2-a]pyridin-8-yloxy)-2-methylpyrrolidin-1-yl)methyl)thiazol-2-yl)acetamide], the IC50 is under 1 nM.
As for `CC(=O)Nc1nc(F)c(CN2C[C@H](Oc3cnc4ccnn4c3)C[C@@H]2C)s1` [Example 170, N-(4-fluoro-5-(((2S,4R)-2-methyl-4-(pyrazolo[1,5-a]pyrimidin-6-yloxy)pyrrolidin-1-yl)methyl)thiazol-2-yl)acetamide], the IC50 is under 1 nM.
Take `CC(=O)Nc1ncc(CN2C[C@H](Oc3cc4nc(C)cn4cn3)C[C@@H]2C)s1` [Example 40, N-(5-(((2S,4R)-2-methyl-4-((2-methylimidazo[1,2-c]pyrimidin-7-yl)oxy)pyrrolidin-1-yl)methyl)thiazol-2-yl)acetamide]: the IC50 was under 1 nM.
